“Also recorded” adds a separate entry of the source.
Assays:
Assay type in all cases: in vivo
[1] = test system: Zucker Diabetic Fatty (ZDF) rats; experiment: Whole blood glucose in the Zucker rat model of diet induced diabetes, 21 days of treatment
Source text: (§1) Study Design: • Zucker rat model of diet induced diabetes (Zucker Diabetic Fatty Rats) • Parallel randomized study • 10 animals in each of 4 treatment groups • 21 days of treatment
(§2) Main Study Outcomes: • Glucose (measured at multiple time points before and during treatment) • HbA1c (before and at the end of the treatment period) • Insulin (before and at the end of the treatment period) • Creatinine (before and at the end of the treatment period)
(§3) Ten Zucker Diabetic Fatty (ZDF) rats were randomly allocated to each of the four different treatment groups (Table 6). Whole blood glucose measurements were made from 4 days before dosing, then daily until for 8 days, then at reduced frequency. Measurements of HbA1c and creatinine were made the day prior to dosing, then at days 9 and 21. Insulin measurements were made the day prior to dosing then on day 20. A clinical chemistry sample from one animal in the vehicle group on day 9 was not available so there is a missing measurement for creatinine and HbA1c on that day
(§4) Whole blood glucose, HbA1c and Creatinine were each analyzed using a linear mixed mode (proc mixed in SAS/STAT 14.2). For WBC, unstructured, autoregressive, exchangeable and Toeplitz correlation structures for repeated measurements across the study were compared using Akaike Information Criterion and Bayesian Information Criterion. The Toeplitz correlation structure was selected as the best fitting structure. For HbA1c and Creatinine an exchangeable structure was used as there were only two measurements. Denominator degrees of freedom were calculated using the between-within subject method. The model included coefficients for baseline measurement (the closest measurement preceding dosing), type of drug treatment, time and an interaction between drug treatment and time. Marginal means (with 95% confidence intervals) for the measurement at each period for each drug were estimated, and an overall marginal mean (with 95% confidence interval) for measurements across time was estimated using weights that reflect the differing amounts of time in each measurement period (assuming each measurement represented all time since the preceding measurement). A likelihood ratio test of overall differences between treatment was initially used, if significant (p<0.05) then we tested for differences between each combination of treatments.
(§5) To test for robustness of the linear mixed model and ANCOVA models a bootstrapped 95% CI (percentile method) for the weighted marginal mean of measurements across the entire study period or single outcome measurement using 2000 replicates was estimated. The bootstrap sampling was done on individual animal (using complete measurements), with stratification by treatment type.

[2] = test system: Zucker Diabetic Fatty (ZDF) rats; experiment: HbA1c in the Zucker rat model of diet induced diabetes, 21 days of treatment
Source text: as §1, §2, §3, §4, §5

[3] = test system: Zucker Diabetic Fatty (ZDF) rats; experiment: Plasma insulin in the Zucker rat model of diet induced diabetes, 21 days of treatment
Source text: as §1, §2, §3
For Insulin, a baseline measure and a measurement at day 20 was available, so the ANCOVA approach (linear regression with the baseline value as a covariate) was used to test for differences in this measurement between treatments. The interaction between baseline value and treatment was tested but there was no evidence of an interaction, therefore the main effects were retained.
as §5

[4] = test system: Zucker Diabetic Fatty (ZDF) rats; experiment: Serum creatinine in the Zucker rat model of diet induced diabetes, 21 days of treatment
Source text: as §1, §2, §3, §4, §5

[5] = whole study period, bootstrapped 95% CI, 2000 replicates

SMILES: CN(C)C(=N)N=C(N)N [Composition 1K-MET, Metformin]
- WBG relative to the control group ([1]; 21 days of treatment): essentially no difference
- Whole blood glucose, pairwise comparison Vehicle vs treatment, Estimate (95% CI) ([1]; days 1-21, difference = treatment minus vehicle): 24.4 (−5.2-53.9) mg/dL
- Overall level in WBG after dosing, Estimate (95% CI) ([1]; non-fasting whole blood glucose, time-weighted marginal mean over days 1-21 post-dosing, linear mixed model): 442.7 (421.8-463.5) mg/dL
- Whole blood glucose, bootstrap median and confidence interval [1, 5]: 443.4 (419.8-465.0) mg/dL
- HbA1c relative to the control group ([2]; 21 days of treatment): essentially no difference
- HbA1c, pairwise comparison Vehicle vs treatment, Estimate (95% CI) ([2]; days 9 and 21, difference = treatment minus vehicle): −0.35 (−0.68-−0.01) %
- HbA1c, overall level after dosing, estimate (95% CI) ([2]; measurements at days 9 and 21, marginal mean, linear mixed model): 6.52 (6.29-6.75) %
- HbA1c, bootstrap median and confidence interval [2, 5]: 6.53 (6.24-6.82) %
- Insulin levels relative to the control group / vehicle ([3]; day 20): no evidence of a difference; also recorded: essentially no difference
- Insulin, Overall level in WBG after dosing, Estimate (95% CI) ([3]; day 20, ANCOVA with baseline as covariate): 3879 (2757-5001) pg/mL
- Insulin, bootstrap median and confidence interval ([3]; day 20, bootstrapped 95% CI, 2000 replicates): 3867 (2914-4874) pg/m
- Insulin, pairwise comparison Vehicle vs treatment, Estimate (95% CI) ([3]; day 20, difference = treatment minus vehicle): 932 (−660-2524) pg/mL
- Creatinine relative to the control group ([4]; 21 days of treatment): essentially no difference
- Creatinine, pairwise comparison Vehicle vs treatment, Estimate (95% CI) ([4]; serum, days 9 and 21, difference = treatment minus vehicle): 0.01 (−0.01-0.03) mg/dL
- Creatinine, Overall level in WBG after dosing, Estimate (95% CI) ([4]; serum, days 9 and 21, marginal mean, linear mixed model): 0.79 (0.77-0.80) mg/dL
- Creatinine, bootstrap median and confidence interval [4, 5]: 0.79 (0.77-0.80) mg/dL

Reference: patent publication US11033544B2, “Low-dose triple combination formulation” (THE GEORGE INSTITUTE FOR GLOBAL HEALTH, priority 2019, dated 2021)
